The record followed here is patent publication US8212022B2, “Effect of carbohydrate concentration on sucralose extraction efficiency” (Tate & Lyle Technology Limited, priority 2008, dated 2012).

The data set is described as follows: Partition coefficient K of sucralose between ethyl acetate and water (equal volumes). It is filed as physicochemical. The settings on record: for partition coefficient, K: equal volumes of ethyl acetate and water. The source says: Unless the context indicates otherwise, in the specification and claims, the terms organic solvent, first organic solvent, second organic solvent, tetrachloro saccharide, trichloro saccharide, dichloro saccharide, salt, sucralose-6-ester, carbohydrate, and similar terms also include mixtures of such materials. The term saccharide includes monosaccharide, disaccharides, and polysaccharides. Solvent means a liquid that dissolves another material. An aqueous solvent is one in which water is the primary (greater than 50 vol % of the solvents present) or only solvent. Partition coefficient, K, of a carbohydrate between an organic solvent and water is the concentration of the carbohydrate in the organic phase divided by the concentration of the carbohydrate in the aqueous phase when equal volumes of organic solvent and water are used. […] Crystallization includes processes in which a solution is rendered saturated or supersaturated with respect to a dissolved component, and the formation of crystals of this component is achieved. The initiation of crystal formation can be spontaneous, or it can require the addition of seed crystals. Crystallization also describes the situation in which a solid or liquid material is dissolved in a solvent to yield a solution which is then rendered saturated or supersaturated so as to obtain crystals. Also, included in the term crystallization are the ancillary processes of washing the crystals with one or more solvents, drying the crystals, and harvesting the final product so obtained. Unless otherwise specified, all percentages are percentages by weight, all temperatures are in degrees Centigrade (degrees Celsius), and all solvent ratios are volume to volume.
Aqueous solutions of sucralose were prepared at various carbohydrate concentrations. An equal volume of ethyl acetate was then added to each solution and the two phases mixed thoroughly. After the two phases separated, the carbohydrate concentration in each phase was determined. The K value was calculated by dividing the concentration of sucralose in the ethyl acetate phase by the concentration of sucralose in the aqueous phase.

Take `CC(=O)OC[C@H]1O[C@H](O[C@]2(CCl)O[C@H](CCl)[C@@H](O)[C@@H]2O)[C@H](O)[C@@H](O)[C@H]1Cl` [sucralose-6-acetate]: the “partition coefficient compared with sucralose” value (organic solvent such as ethyl acetate and water, equal volumes, same conditions as sucralose) is recorded as “larger that the corresponding value for sucralose”.

As to `OC[C@H]1O[C@H](O[C@]2(CCl)O[C@H](CCl)[C@@H](O)[C@@H]2O)[C@H](O)[C@@H](O)[C@H]1Cl` [sucralose, 4,1′,6′-trichloro-4,1′,6′-trideoxygalactosucrose], the “partition coefficient, K” value is recorded as 0.4 (initial concentration of sucralose in the aqueous phase about 5 wt %), “about 1.1” (initial concentration of sucralose in the aqueous phase about 15 wt %) and “about 1.2” (initial concentration of sucralose in the aqueous phase about 16 wt %).
